“Also recorded” adds a separate entry of the source. Where a name gives a salt, the structure may show the parent alone. Read-outs that look alike come from different tables or passages of the source.
Tests used:
[1] = tested on: lipid metabolism; test: Effects of diphosphonates on lipid metabolism in normal rats (serum lipids, α/β cholesterol); assay type: in vivo, male Wistar rats; settings: for change in vivo at 200 mg/kg/day: Rattus norvegicus, po; for increased HDL lipids, especially HDL cholesterol: normal rats; for decreases in serum triglycerides / increase in serum phospholipid / α-cholesterol/β-cholesterol ratio / lipoprotein cholesterol: rats
Description: Effects of diphosphonates of formula (I) on lipid metabolism in normal rats Groups of 4 to 5 normal male Wistar rats, weighing about 200 g were treated with diphosphonates (200 mg/kg/day) p.o. for 4 to 21 days. Water soluble compounds were given in solution in 24 mM bicarbonate buffer. Lipid soluble compounds were given in corn oil. The rats were weighed, sacrificed by decapitation (under light ether anesthesia) after overnight fasting. Blood was collected and serum used for analysis. The following blood parameters reflecting changes in lipid metabolism are reported: […]
free fatty acids measured according to W. G. Duncombe (Clin. Acta 9, 122, 1964) triglycerides enzymatic method (Boehringer Mannheim Kit 126 012) phospholipids: molybdate/vanadate reaction (Boehringer Mannheim Kit 124 974) β-lipoprotein cholesterol was measured after heparin, CaCl2 precipitation according to M. Burstein et al. (La Presse Medicale 43, 974, 1958) and to D. Watson (Clin. Chim. Acta 5, 637, 1960).
(§1) In above Table IV, results are given as % control values. Except for serum calcium, values which differ from control values by less than 15% are considered as non significant (NS).
Serum free fatty acids, triglycerides and phospholipids were measured in normal rats (N) and rats previously fed a cholesterol diet for 10 days (C.F.) Serum α/β cholesterol, total lipids and cholesterol of liver and aorta were determined in normal rats (N) and rats which had previously been fed on high cholesterol diet (C.F.)

[2] = tested on: tissue cholesterol; test: Effects in cholesterol fed rats (serum, liver and aorta lipids); assay type: in vivo; settings: for change in vivo at 200 mg/kg/day: Rattus norvegicus; for liver total lipids and/or liver cholesterol: cholesterol fed rats
Description: Effects of diphosphonates of formula (I) in cholesterol fed rats
In order to increase tissue cholesterol, especially liver, rats were fed a high fat-high cholesterol diet for 10 days to 3 months, with the following diet composition: casein 20%, butter 37%, cellulose 9.1%, dextrose 18,9%, cholesterol 4.5%, sodium cholate 1.8%, minerals 7.3%, vitamins 1%, choline 0.4%.
The rats were then fed normal food and were treated for 10 days to 3 months with different compounds (200 mg/kg/day). Serum parameters described above were measured. Liver and aorta lipids were extracted according to J. Folch et al (J. Biochem. 226, 497, 1957). Total lipids were determined by the sulfophosphovanillic reaction (see N. Zolner and K. Kirsch, Z. Ges. exp. Med. 135, 545, 1962) and cholesterol by the Liebermann-Burchard reaction or appropriate enzymatic reaction.
as §1
Serum free fatty acids, triglycerides and phospholipids were measured in normal rats (N) and rats previously fed a cholesterol diet for 10 days (C.F.)
Serum α/β cholesterol, total lipids and cholesterol of liver and aorta were determined in normal rats (N) and rats which had previously been fed on high cholesterol diet (C.F.)

[3] = tested on: serum calcium; test: Effects of acid and salt form of diphosphonates in hypercalceamic rats; assay type: in vivo, male Wistar rats
Description: Effects of acid and salt form of diphosphonates of formula (I) in hypercalceamic rats
To verify this activity the acid form of compound 4 and is monosodium salt counterpart (compound 10) were also tested by using a protol similar to the one described by Potokar (see above). Briefly, groups of 4 male Wistar rats received acid or salt form of compound 4 as 0.05% solution in drinking water corresponding to about 50 mg/kg/day. The rats were treated with the compounds for 15 days.
Serum calcium was measured in hypercalceamic rats.

[4] = normal rats (N), 200 mg/kg/day p.o., read-out: Serum Free Fatty Acids (% control values)
[5] = normal rats (N), 200 mg/kg/day p.o., read-out: Serum Phospholipids (% control values)
[6] = normal rats (N), 200 mg/kg/day p.o., read-out: Serum Triglycerides (% control values)
[7] = cholesterol fed rats (C.F), 200 mg/kg/day, read-out: Liver Chol. (% control values)
[8] = cholesterol fed rats (C.F), 200 mg/kg/day, read-out: Liver Total Lipids (% control values)
[9] = cholesterol fed rats (C.F), 200 mg/kg/day
[10] = normal rats (N), 200 mg/kg/day p.o., monosodium salt, 200 mg/kg/day
[11] = normal rats (N), 200 mg/kg/day p.o.
[12] = normal rats (N), 200 mg/kg/day p.o., read-out: Serum Chol. α/β (% control values)

SMILES	change in vivo at 200 mg/kg/day [1, 4] [%]	change in vivo at 200 mg/kg/day [1, 5] [%]	change in vivo at 200 mg/kg/day [1, 6] [%]	increased HDL lipids, especially HDL cholesterol [1]	decreases in serum triglycerides [1]	increase in serum phospholipid [1]	α-cholesterol/β-cholesterol ratio / lipoprotein cholesterol [1]	change in vivo at 200 mg/kg/day [2, 7] [%]	change in vivo at 200 mg/kg/day [2, 8] [%]	liver total lipids and/or liver cholesterol [2]	Aorta Chol. (% control values) [2, 9]	Aorta Total Lipids (% control values) [2, 9]	Serum Chol. α/β (% control values) [2, 9]	Serum Free Fatty Acids (% control values) [2, 9] [%]	Serum Phospholipids (% control values) [2, 9]	Serum Triglycerides (% control values) [2, 9]	change in vivo at 200 mg/kg/day [1, 12] [%]	other results
COP(=O)(OC)C(O)(c1ccc(Cl)cc1)P(=O)(OC)OC [Compound 4, Tetramethyl 1-(p-chlorophenyl)methane 1-hydroxy 1,1-diphosphonate]	-48	43	-24	observed most dramatically	Significant decreases	found to increase; also recorded: at least two fold the most active	highly significant activity	-56	-31	decreased significantly	NS (Except for serum calcium, values which differ from control values by less than 15% are considered as non significant (NS))	-47%	+220%	-67	+21%	-21%		
COP(=O)(OC)C(O)(C(C)(C)Oc1ccc(Cl)cc1)P(=O)(OC)OC [Compound 7, Tetramethyl 2,2-dimethyl 2(p-chlorophenoxy) ethane 1-hydroxy 1,1-diphosphonate]	28	26	-33		Significant decreases	found to increase		-25	< 15	decreased significantly	-19%	-27%	+27%	-40	NS (Except for serum calcium, values which differ from control values by less than 15% are considered as non significant (NS))	NS (Except for serum calcium, values which differ from control values by less than 15% are considered as non significant (NS))		
COP(=O)(OC)C(O)(c1ccc(C(=O)c2ccc(Cl)cc2)cc1)P(=O)(OC)OC [Compound 9, Tetramethyl 1[4(4'-chlorobenzoyl)-phenyl]methane 1-hydroxy 1,1-diphosphonate]	-38	< 15	-16	observed most dramatically	Significant decreases		highly significant activity	< 15	-25	decreased significantly	-39%	NS (Except for serum calcium, values which differ from control values by less than 15% are considered as non significant (NS))	+51%	-52	+36%	-17%		
O=P(O)(O)C(O)(c1ccc(Cl)cc1)P(=O)(O)O [Compound 10, 1-hydroxy 1 (p-chlorophenyl)methane 1,1-diphosphonic acid, monosodium salt]																		Serum Free Fatty Acids (% control values) [1, 10]: -27%; Serum Triglycerides (% control values) [1, 10]: -17%; Serum Calcium (% control values) ([3]; 15% NS limit does not apply, monosodium salt): -14%; decrease of serum calcium ([3]; about 50 mg/kg/day in drinking water, 15 days, listed as salt form of compound 4, monosodium salt): 14%
COP(=O)(OC)OC(c1ccccc1)P(=O)(OC)OC (stereo not drawn) [Compound 13, dimethyl α(dimethoxyphosphinyl) benzylphosphate]						found to increase				decreased significantly			+25%					Serum Free Fatty Acids (% control values) [1, 11]: -21%; Serum Phospholipids (% control values) [1, 11]: +21%; Serum Triglycerides (% control values) [1, 11]: +32%; Liver Chol. (% control values) [2, 9]: -51%; Liver Total Lipids (% control values) [2, 9]: -18%
COP(=O)(OC)OC(c1ccc(C)cc1)P(=O)(OC)OC (centres unmarked) [Compound 18]		< 15	-33						< 15								< 15	
COP(=O)(OC)OC(C(C)(C)c1ccc(Cl)cc1)P(=O)(OC)OC (centres unmarked) [Compound 21, Dimethyl 1-(dimethoxyphosphinyl) 2,2-dimethyl 2(p-chlorophenyl) ethylphosphate]		16	-38		Significant decreases	found to increase		-46	-36	decreased significantly			-32%		+24%	+28%	< 15	
CCOP(=O)(OCC)C(Cc1ccc(Cl)cc1)P(=O)(OCC)OCC [Compound 27]	-44	< 15	-16		Significant decreases			< 15	< 15	decreased significantly	NS (Except for serum calcium, values which differ from control values by less than 15% are considered as non significant (NS))	-60%	-35%	-65	NS (Except for serum calcium, values which differ from control values by less than 15% are considered as non significant (NS))	-24%		
COP(=O)(OC)C(Cc1ccc(Cl)cc1)P(=O)(OC)OC [Compound 35]	-44	51	< 15	observed most dramatically		found to increase; also recorded: at least two fold the most active	highly significant activity	-19	< 15	decreased significantly							75	
